Assay results reported in ChEMBL document CHEMBL4229381, “New cytokinin derivatives possess UVA and UVB photoprotective effect on human skin cells and prevent oxidative stress” (Eur J Med Chem, 2018).
The source made the active and inactive calls. The rule behind the calls is not given here.

Tests used:
[1] = tested on: Amaranthus caudatus; experiment: Growth promoting activity in Amaranthus caudatus var. atropurpurea seeds by measuring betacyanin at 10^-4 mol/L after 48 hrs relative to control; assay type: functional
[2] = tested on: Nicotiana tabacum; experiment: Growth promoting activity in tobacco callus assessed as callus weight at 10^-5 mol/L after 4 weeks relative to control; assay type: functional
[3] = tested on: Triticum aestivum; experiment: Anti-senescent activity in leaf of Triticum aestivum cv. Hereward seedlings by measuring chlorophyll retention at 10^-4 mol/L after 4 days relative to control; assay type: functional
[4] = Cytotoxicity in human HaCaT cells assessed as cell viability at 15.6 uM after 24 hrs by neutral red uptake assay relative to control; assay type: cell-based; settings: read-out: Activity
[5] = Cytotoxicity in human HaCaT cells assessed as cell viability at 3.9 uM after 24 hrs by neutral red uptake assay relative to control; assay type: cell-based; settings: read-out: Activity
[6] = Cytotoxicity in human HaCaT cells assessed as cell viability at 125 uM after 24 hrs by neutral red uptake assay relative to control; assay type: cell-based; settings: read-out: Activity
[7] = Phototoxicity in human HaCaT cells assessed as cell viability at 15.6 uM preincubated for 60 mins followed by 7.5 J/cm2 UVA irradiation and measured after 24 hrs by neutral red uptake assay relative to control; assay type: cell-based; settings: read-out: Activity
[8] = Cytotoxicity in human HaCaT cells assessed as cell viability at 31.3 uM after 24 hrs by neutral red uptake assay relative to control; assay type: cell-based; settings: read-out: Activity
[9] = Phototoxicity in human NHDF cells assessed as cell viability at 15.6 uM preincubated for 60 mins followed by 5 J/cm2 UVA irradiation and measured after 24 hrs by neutral red uptake assay relative to control; assay type: cell-based; settings: read-out: Activity
[10] = tested on: HaCaT; experiment: Cytotoxicity in human HaCaT cells assessed as reduction in cell viability at 50 uM after 24 hrs by resazurin dye-based fluorescence assay relative to control
[11] = Phototoxicity in human HaCaT cells assessed as cell viability at 125 uM preincubated for 60 mins followed by 7.5 J/cm2 UVA irradiation and measured after 24 hrs by neutral red uptake assay relative to control; assay type: cell-based; settings: read-out: Activity
[12] = Phototoxicity in human NHDF cells assessed as cell viability at 125 uM preincubated for 60 mins followed by 5 J/cm2 UVA irradiation and measured after 24 hrs by neutral red uptake assay relative to control; assay type: cell-based; settings: read-out: Activity
[13] = Phototoxicity in human NHDF cells assessed as cell viability at 3.9 uM preincubated for 60 mins followed by 5 J/cm2 UVA irradiation and measured after 24 hrs by neutral red uptake assay relative to control; assay type: cell-based; settings: read-out: Activity
[14] = Cytotoxicity in human NHDF cells assessed as cell viability at 15.6 uM after 24 hrs by neutral red uptake assay relative to control; assay type: cell-based; settings: read-out: Activity
[15] = Cytotoxicity in human NHDF cells assessed as cell viability at 31.3 uM after 24 hrs by neutral red uptake assay relative to control; assay type: cell-based; settings: read-out: Activity
[16] = tested on: BJ; experiment: Cytotoxicity in human BJ cells assessed as reduction in cell viability at 50 uM after 24 hrs by resazurin dye-based fluorescence assay relative to control
[17] = Phototoxicity in human HaCaT cells assessed as cell viability at 31.3 uM preincubated for 60 mins followed by 7.5 J/cm2 UVA irradiation and measured after 24 hrs by neutral red uptake assay relative to control; assay type: cell-based; settings: read-out: Activity
[18] = Phototoxicity in human NHDF cells assessed as cell viability at 31.3 uM preincubated for 60 mins followed by 5 J/cm2 UVA irradiation and measured after 24 hrs by neutral red uptake assay relative to control; assay type: cell-based; settings: read-out: Activity
[19] = Cytotoxicity in human NHDF cells assessed as cell viability at 7.8 uM after 24 hrs by neutral red uptake assay relative to control; assay type: cell-based; settings: read-out: Activity
[20] = tested on: HaCaT; experiment: Cytoprotection against phototoxicity in human HaCaT cells assessed as increase in cell viability at 3.9 uM preincubated for 60 mins followed by 10 J/cm2 UVA irradiation and measured after 24 hrs by neutral red uptake assay; assay type: functional, cell-based
[21] = Phototoxicity in human NHDF cells assessed as cell viability at 7.8 uM preincubated for 60 mins followed by 5 J/cm2 UVA irradiation and measured after 24 hrs by neutral red uptake assay relative to control; assay type: cell-based; settings: read-out: Activity
[22] = Cytotoxicity in human NHDF cells assessed as cell viability at 125 uM after 24 hrs by neutral red uptake assay relative to control; assay type: cell-based; settings: read-out: Activity
[23] = tested on: NHDF; experiment: Cytoprotection against phototoxicity in human NHDF cells assessed as increase in cell viability at 31.3 uM preincubated for 60 mins followed by 150 mJ/cm2 UVB irradiation and measured after 24 hrs by neutral red uptake assay; assay type: functional, cell-based
[24] = Phototoxicity in human NHDF cells assessed as cell viability at 62.5 uM preincubated for 60 mins followed by 5 J/cm2 UVA irradiation and measured after 24 hrs by neutral red uptake assay relative to control; assay type: cell-based; settings: read-out: Activity
[25] = Cytotoxicity in human HaCaT cells assessed as cell viability at 7.8 uM after 24 hrs by neutral red uptake assay relative to control; assay type: cell-based; settings: read-out: Activity
[26] = Antioxidant activity assessed as trolox equivalent of AAPH-induced radical scavenging activity at 1 uM pretreated for 15 mins followed by […] challenge measured every 3 mins over 90 mins by ORAC-FL assay; assay type: functional
[27] = Phototoxicity in human HaCaT cells assessed as cell viability at 7.8 uM preincubated for 60 mins followed by 7.5 J/cm2 UVA irradiation and measured after 24 hrs by neutral red uptake assay relative to control; assay type: cell-based; settings: read-out: Activity
[28] = Cytotoxicity in human NHDF cells assessed as cell viability at 3.9 uM after 24 hrs by neutral red uptake assay relative to control; assay type: cell-based; settings: read-out: Activity
[29] = Cytotoxicity in human NHDF cells assessed as cell viability at 62.5 uM after 24 hrs by neutral red uptake assay relative to control; assay type: cell-based; settings: read-out: Activity
[30] = Phototoxicity in human HaCaT cells assessed as cell viability at 3.9 uM preincubated for 60 mins followed by 7.5 J/cm2 UVA irradiation and measured after 24 hrs by neutral red uptake assay relative to control; assay type: cell-based; settings: read-out: Activity
[31] = Phototoxicity in human HaCaT cells assessed as cell viability at 62.5 uM preincubated for 60 mins followed by 7.5 J/cm2 UVA irradiation and measured after 24 hrs by neutral red uptake assay relative to control; assay type: cell-based; settings: read-out: Activity
[32] = tested on: Amaranthus caudatus; experiment: Growth promoting activity in Amaranthus caudatus var. atropurpurea seeds by measuring betacyanin at 10^-5 mol/L after 48 hrs relative to control; assay type: functional
[33] = tested on: NHDF; experiment: Cytoprotection against phototoxicity in human NHDF cells assessed as increase in cell viability at 3.9 to 31.3 uM preincubated for 60 mins followed by 7.5 J/cm2 UVA irradiation and measured after 24 hrs by neutral red uptake assay; assay type: functional, cell-based
[34] = tested on: Caenorhabditis elegans; experiment: Protection against juglone-induced oxidative stress in Caenorhabditis elegans BA17 (fem-1) at 100 uM preincubated for 3 days followed by juglone addition measured every hour for 12 ro 14 hrs by inverted microscopic analysis; assay type: functional, organism-based
[35] = tested on: NHDF; experiment: Cytoprotection against phototoxicity in human NHDF cells assessed as increase in cell viability at 3.9 to 31.3 uM preincubated for 60 mins followed by 150 mJ/cm2 UVB irradiation and measured after 24 hrs by neutral red uptake assay; assay type: functional, cell-based

Compound `c1nc(NCC2CCCC2)c2nc[nH]c2n1` has an Activity [1] of 97%, an Activity [2] of 100% and an Activity [3] of 71%.
With `c1csc(CCNc2ncnc3[nH]cnc23)c1` the Activity [1] was 80%, the Activity [2] was 77% and the Activity [3] was “inactive”.
Compound `c1nc(NCC2CCCO2)c2nc[nH]c2n1` (centres undefined) has a viability at 24 h, 15.6 µM [4] of 102%, a viability at 24 h, 3.9 µM [5] of 102% and a viability at 24 h, 125 µM [6] of 102%. The Activity [1] was 109%, the viability at 24 h, 15.6 µM [7] was 106% and the viability at 24 h, 31.3 µM [8] was 104%. The viability at 24 h, 15.6 µM [9] was 100%, the Activity [10] was under 10% and the viability at 24 h, 125 µM [11] was 119%. For the same compound, the viability at 24 h, 125 µM [12] was 103%, the viability at 24 h, 3.9 µM [13] was 99% and the viability at 24 h, 15.6 µM [14] was 101%. For the same compound, the viability at 24 h, 31.3 µM [15] was 102%, the Activity [16] was under 10% and the viability at 24 h, 31.3 µM [17] was 113%. For the same compound, the viability at 24 h, 31.3 µM [18] was 101%, the viability at 24 h, 7.8 µM [19] was 103% and the Activity [20] was “Active”. For the same compound, the viability at 24 h, 7.8 µM [21] was 101%, the viability at 24 h, 125 µM [22] was 101% and the Activity [23] was “Active”. It also gave an Activity [2] of 110%, a viability at 24 h, 62.5 µM [24] of 100% and an Activity [3] of 114%. It also gave a viability at 24 h, 7.8 µM [25] of 104%, an Activity [26] of under 0.05 equiv and a viability at 24 h, 7.8 µM [27] of 103%. It also gave a viability at 24 h, 3.9 µM [28] of 102%, a viability at 24 h, 62.5 µM [29] of 102% and a viability at 24 h, 3.9 µM [30] of 101%. For the same compound, the viability at 24 h, 62.5 µM [31] was 118%.
Compound `c1csc(CNc2[nH]cnc3ncnc2-3)c1` has an Activity [32] of 95%, an Activity [2] of 102% and an Activity [3] of 60%.
With `c1coc(CNc2ncnc3c2ncn3C2CCCO2)c1` (centres undefined) the Activity [1] was 70%, the Activity [33] was “Active” and the Activity [34] was “Active”. The Activity [2] was 111%, the Activity [35] was “Active” and the Activity [3] was 125%.
With `Clc1nc(NCc2cccs2)c2ncn(C3CCCO3)c2n1` (centres undefined) the Activity [1] was 101%, the Activity [2] was 108% and the Activity [3] was “inactive”.
